The test system of assay [1] is Escherichia coli serotype O157:H7 (ATCC 700728). Nature of the assay: Bioscreen growth rate in brain heart infusion broth with lactylate and polylysine. The assay is classed as cell-based. As to the method:
(§1) The following cultures were used in a study: Escherichia coli serotype O157:H7 (ATCC 700728), Salmonella typhimurium (ATCC 13311) and Salmonella entiritidis (ATCC 13076). All cultures were transferred daily in screw-capped tubes containing 10 ml brain heart infusion broth. Cultures were incubated at 30° C. without agitation. Brain heart infusion broth was prepared with increasing amounts of lactylate and polylysine. The concentration range for the caprylic (C8) lactylate was as from 0 to 0.45% in 10 0.05% steps, for the capric (C10) lactylate was as from 0 to 0.09% in 10 0.01% steps, for the lauric (C12) lactylate was as from 0 to 0.009% in 10 0.001% steps and for the tetradecanoic (C14) lactylate was as from 0 to 0.009% in 10 0.001% steps. Lactylates were combined with polylysine. The concentration range for the polylysine was as from 0 to 0.0675% in 10 0.0075% steps. […] The pH of the media was adjusted to 6.1-6.2 with 1 N HCl or 1 N NaOH. Media were prepared in 10 ml quantities and sterilized by filtration. 300 μl of each medium was transferred to a panel of a sterile Bioscreen® honeycomb 100 well plate. Well plates were inoculated with 5 μl of a culture that was grown overnight in brain heart infusion broth using a sterile 5 μl repeating dispenser. Growth rates were determined with a Bioscreen® C that kinetically measures the development of turbidity by vertical photometry. The plates were incubated for 16-24 hours at 37° C., the optical density of the cultures was measured every 30 minutes at 420-580 nm using a wide band filter. The Bioscreen® measures at set time intervals the optical density of the cultures. […] The purpose of further data processing is to ascertain whether two […] act independently of each other or whether they stimulate each other in their inhibitory action (synergy) or cancel out each other inhibitory effect (antagonism). When a certain compound has no effect on an organism the specific growth rate of this organism (μ) can be expressed as a function (f) of the growth limiting substrate concentration (s) by for example the Monod equation, which reads: μ=μmax·s/(Ks+s), where μmax represents the maximum specific growth rate, s the standing concentration of the growth limiting substrate in the medium and Ks the substrate concentration where μ=0.5μmax. However, when the presence of an inhibitor P affects cell growth the function f for μ must be modified i.e. μ=f(s,p), where p represents the concentration of inhibitor P. Numerous studies of growth inhibition kinetics of bacteria have shown that many inhibitors behave as non-competitive inhibitors. This implies that only the maximum specific growth rate (μmax) value and not the affinity (Ks) is affected. Therefore the specific growth rate in the presence of inhibitor can be written as: μ=μi·s/(Ks+s), where μi is the maximal specific growth rate in the presence of a inhibitor P. The relationship between μi and μmax and the concentration of the inhibitor P was describes using the Logistic Dose Response equation, which reads: μi/μmax=1/(1+(p/p0.5)^b) (Jungbauer, A. (2001). The logistic dose response function: a robust fitting function for transition phenomena in life sciences. J. Clinical Ligand Assay 24: 270-274). In this equation p represents the concentration of inhibitor P and p0.5 the concentration of P where μi=0.5μmax; μmax is the maximum specific growth rate that is the specific growth rate in the absence of inhibitor P, b is a dimensionless quantity, which determines the relationship between μi and p. Combining the Monod and Logistic Dose Response equation it can be written as: μ=μmax(s/Ks+s)/(1+(p/p0.5)^b). In batch culture where s is usually many times higher than Ks this equation reduces to μ=μmax/(1+(p/p0.5)^b). When comparing different organisms grown under the same conditions, or the same organism grown under different conditions, it is more meaningful to use relative growth rate, rather than absolute growth rates as standards of comparison. […]

The subject of assay [2] is Salmonella entiritidis (ATCC 13076). The assay is described as above. The assay is classed as cell-based. On the procedure: as §1
Assay [3] has as its system Salmonella typhimurium (ATCC 13311). The assay is described as above. The assay is classed as cell-based. On the procedure: as §1
Assay [4] concerns Salmonella Typhimurium ATCC 13311. Nature of the assay: Decontamination of inoculated chicken filets, surviving cell count. The assay is classed as cell-based. The following applies: for Salmonella Typhimurium on chicken filets: individual, 12° C. As to the method:
Salmonella Typhimurium ATCC 13311 and Escherichia coli O157:H7 ATCC 700728 were grown in sterile screw capped tubes containing Brain heart infusion broth for 18-24 hours at 30° C.
Chicken filets (150-200 g) were trimmed, vacuum packaged and stored at 4-7° C. Filets were subsequently sterilized by gamma-irradiation (average radiation dose: 12 kiloGray).
1 ml of an overnight culture of Salmonella Typhimurium in brain heart infusion both was diluted 1000 times with sterile 0.8% (w/v) NaCl and 0.1% (w/v) peptone. 0.5 ml of this diluted culture was transferred to one side of the filet. The inoculum was distributed by gently rubbing the entire surface of the filet. This was repeated for the other side of the filet. Inoculation was carried out at 6° C. Inoculated filets were rested for 60-120 min at 6° C. to allow attachment of the cells.
Chicken filets were briefly dipped and completely submersed in 1 l of a solution containing the appropriate formulation and then transferred to 400 ml Bagfilter® lateral filter bags (Interscience, St Nom, France) containing 5 ml of the appropriate formulation. Bags were vacuum-sealed and incubated at 12° C. for up to 7 days until further analysis. Time zero samples were plated within 30 min after dipping.
Surviving Salmonella Typhimurium on chicken filets were counted as follows: a sealed bag was opened and to this was added 2 times the net weight sterile dilution fluid ([…] NaCl and 0.1% (w/v) bacteriological peptone). Duplicate filets were homogenized for 1 min. in a Bagmixer® 400 paddle labblender (Interscience, St Nom, France). 50 μl of the homogenates or dilutions thereof were plated on duplicate Salmonella chromogenic agar plates (CM1007) with cefsulodin, novobiocin supplement (SR0194) (Oxoid, Basingstoke, United Kingdom) using an Eddyjet type 1.23 spiral plater (IUL Instruments, Barcelona, Spain). Plates were incubated for 24-48 hours at 30° C. and then counted. Salmonella numbers were expressed as log10 colony forming units per ml homogenate.
The compositions of the formulations that were studied are shown in Table 2. ε-Polylysine and lactylates were dissolved in demineralised water and sterilized for 20 min at 120° C.

Assay [5] relates to Escherichia coli (ATCC 8739). Nature of the assay: Bioscreen growth rate in brain heart infusion broth with lactylate and polylysine. The assay is classed as cell-based.
The subject of assay [6] is Candida albicans. The following applies: EP 1000542; cited from earlier work.
Assay [7] has as its system Enterococcus faecalis. The conditions noted are these: EP 1000542; cited from earlier work.
The mark [8] stands for this setting: 0.45% (w/w) in broth, pH 6.1-6.2, 37° C.
Setting [9] is: 0.0225% (w/w) in broth, pH 6.1-6.2, 37° C.

“And” between values parts separate entries of the source, which are not always exact repeats. Identical values can stand only once.

`CCCCCCCC(=O)OC(C)C(=O)[O-].[Na+]` (centres unmarked) [C8-lactylate, sodium salt of octanoyllactylate]: the “Observed Relative Growth Rate” value in assay [1] (setting [8]) is given as 0.657; in assay [2] (setting [8]), 0.58; in assay [3] (setting [8]), 0.4763; in assay [5] (setting [8]), 0.5625. For the same compound, the “Salmonella Typhimurium on chicken filets” value in assay [4] (0.2% (w/v), day 0) is 3.85 log10 colony forming units (CFU)/ml; in assay [4] (0.2% (w/v), day 1) it was 4.1 log10 colony forming units (CFU)/ml; in assay [4] (0.2% (w/v), day 2), 4.29 log10 colony forming units (CFU)/ml; in assay [4] (0.2% (w/v), day 5), 6.27 log10 colony forming units (CFU)/ml; in assay [4] (0.2% (w/v), day 6) it was 7.35 log10 colony forming units (CFU)/ml; in assay [4] (0.2% (w/v), day 7), 7.42 log10 colony forming units (CFU)/ml.

`CCCCCCCCCC(=O)OC(C)C(=O)O` (centres unmarked) [C10-lactylate, decanoyllactylate]: the “Observed Relative Growth Rate” value amounted to 0.766 in assay [1] (0.09% (w/w) in broth), 0.912 in assay [2] (0.09% (w/w) in broth), 0.904 in assay [3] (0.09% (w/w) in broth) and 0.721 in assay [5] (0.09% (w/w) in broth). Besides, the “Salmonella Typhimurium on chicken filets” value was 3.75 log10 colony forming units (CFU)/ml in assay [4] (0.05% (w/v), day 0); 3.95 log10 colony forming units (CFU)/ml in assay [4] (0.05% (w/v), day 1); 4.45 log10 colony forming units (CFU)/ml in assay [4] (0.05% (w/v), day 2); 6.87 log10 colony forming units (CFU)/ml in assay [4] (0.05% (w/v), day 5); 6.83 log10 colony forming units (CFU)/ml in assay [4] (0.05% (w/v), day 6); 7.52 log10 colony forming units (CFU)/ml in assay [4] (0.05% (w/v), day 7).

For the compound `CCCCCCCCCC(=O)OC(C)C(=O)OC(C)C(=O)[O-].[Na+]` (centres unmarked) [sodium salt of capryl-lactyl-lactylate], the antimicrobial activity entry in assay [6] and in assay [7] was “some antimicrobial activity” throughout.

On to “poly(imino(2-amino-1-oxo-1,6-hexanediyl)) [ε-polylysine]”, for which the “Observed Relative Growth Rate” value in assay [2] (setting [9]) is 0.9645 and 0.971 and 0.9035; in assay [3] (setting [9]), 0.943 and 0.9725 and 0.9520; in assay [5] (setting [9]), 0.4935 and 0.7370 and 0.4395 and 0.68. The “Salmonella Typhimurium on chicken filets” value in assay [4] (0.1% (w/v), day 0) is listed as 3.04 log10 colony forming units (CFU)/ml; in assay [4] (0.1% (w/v), day 1), 2.04 log10 colony forming units (CFU)/ml; in assay [4] (0.1% (w/v), day 2), 2.15 log10 colony forming units (CFU)/ml; in assay [4] (0.1% (w/v), day 5), 4.04 log10 colony forming units (CFU)/ml; in assay [4] (0.1% (w/v), day 6), 4.26 log10 colony forming units (CFU)/ml; in assay [4] (0.1% (w/v), day 7), 5.35 log10 colony forming units (CFU)/ml. The compound further had a reduction in numbers in assay [4] (single addition, after one day of incubation) of 2 log10.

These data come from patent publication US7973006B2, “Antibacterial agent based on fatty acid esters of hydroxy carboxylic acid acids” (Purac Biochem B.V., priority 2007, dated 2011).
